{"source": "patent US9365584B2", "about": "“Thieno [2,3-B] pyridinedione activators of AMPK and therapeutic uses thereof” (Poxel, priority 2009, dated 2016)", "data": [{"tested_on": "AMPK", "assay": "AMPK enzyme activity assay (Delfia technology, AMARA peptide substrate)", "type": "biochemical", "details": "compound at 30 μM vs AMP at 200 μM", "method_in_brief": "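Value is the ratio of compound (30 μM) to AMP (200 μM) response, each as % of basal control. Phosphorylation of the AMARA peptide after AMPK addition was read by Delfia with an anti-phosphoserine antibody.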", "values": [{"compound": "O=C1Nc2scc(-c3ccc(Br)cc3)c2C(=O)C1(F)c1ccncc1", "note": "(stereo not drawn) [No 124, 3-(4-bromophenyl)-5-fluoro-5-(4-pyridyl)-7H-thieno[2,3-b]pyridine-4,6-dione]", "Activity: Ratio between the % of control (basal activity) of compound of formula (1) at 30 μM and the % of control (basal activity) of AMP (natural substrate) at 200 μM": "B (50%≦B<75%)"}, {"compound": "O=C1Nc2scc(-c3ccccc3Br)c2C(=O)C1(F)c1ccccc1", "note": "(stereo not drawn) [No 125, 3-(2-bromophenyl)-5-fluoro-5-phenyl-7H-thieno[2,3-b]pyridine-4,6-dione]", "Activity: Ratio between the % of control (basal activity) of compound of formula (1) at 30 μM and the % of control (basal activity) of AMP (natural substrate) at 200 μM": "A (0%<A<50%)"}, {"compound": "COc1cccc(C2(C)C(=O)Nc3sc(Cl)c(-c4cccc(C)c4)c3C2=O)c1", "note": "(stereo not drawn) [No 126, 2-chloro-5-(3-methoxyphenyl)-5-methyl-3-(m-tolyl)-7H-thieno[2,3-b]pyridine-4,6-dione]", "Activity: Ratio between the % of control (basal activity) of compound of formula (1) at 30 μM and the % of control (basal activity) of AMP (natural substrate) at 200 μM": "B (50%≦B<75%)"}, {"compound": "COc1cc(Br)ccc1-c1csc2c1C(=O)C(F)(c1ccccc1)C(=O)N2", "note": "(stereo not drawn) [No 127, 3-(4-bromo-2-methoxy-phenyl)-5-fluoro-5-phenyl-7H-thieno[2,3-b]pyridine-4,6-dione]", "Activity: Ratio between the % of control (basal activity) of compound of formula (1) at 30 μM and the % of control (basal activity) of AMP (natural substrate) at 200 μM": "A (0%<A<50%)"}, {"compound": "COc1cc(Br)ccc1-c1c(F)sc2c1C(=O)C(F)(c1ccccc1)C(=O)N2", "note": "(stereo not drawn) [No 128, 3-(4-bromo-2-methoxy-phenyl)-2,5-difluoro-5-phenyl-7H-thieno[2,3-b]pyridine-4,6-dione]", "Activity: Ratio between the % of control (basal activity) of compound of formula (1) at 30 μM and the % of control (basal activity) of AMP (natural substrate) at 200 μM": "A (0%<A<50%)"}, {"compound": "Cc1ccccc1-c1csc2c1C(=O)C(F)(c1ccccc1)C(=O)N2", "note": "(stereo not drawn) [No 129, 5-fluoro-3-(o-tolyl)-5-phenyl-7H-thieno[2,3-b]pyridine-4,6-dione]", "Activity: Ratio between the % of control (basal activity) of compound of formula (1) at 30 μM and the % of control (basal activity) of AMP (natural substrate) at 200 μM": "B (50%≦B<75%)"}, {"compound": "Cc1ccccc1-c1c(F)sc2c1C(=O)C(F)(c1ccccc1)C(=O)N2", "note": "(stereo not drawn) [No 130, 2,5-difluoro-3-(o-tolyl)-5-phenyl-7H-thieno[2,3-b]pyridine-4,6-dione]", "Activity: Ratio between the % of control (basal activity) of compound of formula (1) at 30 μM and the % of control (basal activity) of AMP (natural substrate) at 200 μM": "B (50%≦B<75%)"}, {"compound": "O=C1Nc2scc(-c3ccccc3)c2C(=O)C1(F)c1cccc(C(F)(F)F)c1", "note": "(stereo not drawn) [No 131, 5-fluoro-3-phenyl-5-[3-(trifluoromethyl)phenyl]-7H-thieno[2,3-b]pyridine-4,6-dione]", "Activity: Ratio between the % of control (basal activity) of compound of formula (1) at 30 μM and the % of control (basal activity) of AMP (natural substrate) at 200 μM": "B (50%≦B<75%)"}, {"compound": "O=C1Nc2sc(F)c(-c3ccccc3)c2C(=O)C1(F)c1cccc(C(F)(F)F)c1", "note": "(stereo not drawn) [No 132, 2,5-difluoro-3-phenyl-5-[3-(trifluoromethyl)phenyl]-7H-thieno[2,3-b]pyridine-4,6-dione]", "Activity: Ratio between the % of control (basal activity) of compound of formula (1) at 30 μM and the % of control (basal activity) of AMP (natural substrate) at 200 μM": "A (0%<A<50%)"}, {"compound": "O=C1Nc2scc(-c3ccccc3)c2C(=O)C1(F)c1ccc(C(F)(F)F)cc1", "note": "(stereo not drawn) [No 133, 5-fluoro-3-phenyl-5-[4-(trifluoromethyl)phenyl]-7H-thieno[2,3-b]pyridine-4,6-dione]", "Activity: Ratio between the % of control (basal activity) of compound of formula (1) at 30 μM and the % of control (basal activity) of AMP (natural substrate) at 200 μM": "A (0%<A<50%)"}, {"compound": "O=C1Nc2sc(F)c(-c3ccccc3)c2C(=O)C1(F)c1ccc(C(F)(F)F)cc1", "note": "(stereo not drawn) [No 134, 2,5-difluoro-3-phenyl-5-[4-(trifluoromethyl)phenyl]-7H-thieno[2,3-b]pyridine-4,6-dione]", "Activity: Ratio between the % of control (basal activity) of compound of formula (1) at 30 μM and the % of control (basal activity) of AMP (natural substrate) at 200 μM": "A (0%<A<50%)"}, {"compound": "O=C1Nc2scc(-c3ccc(C(F)(F)F)cc3)c2C(=O)C1(F)c1ccccc1", "note": "(stereo not drawn) [No 135, 5-fluoro-5-phenyl-3-[4-(trifluoromethyl)phenyl]-7H-thieno[2,3-b]pyridine-4,6-dione]", "Activity: Ratio between the % of control (basal activity) of compound of formula (1) at 30 μM and the % of control (basal activity) of AMP (natural substrate) at 200 μM": "A (0%<A<50%)"}, {"compound": "Cc1cccc(-c2csc3c2C(=O)C(F)(c2ccccc2)C(=O)N3)c1", "note": "(stereo not drawn) [No 136, 5-fluoro-3-(m-tolyl)-5-phenyl-7H-thieno[2,3-b]pyridine-4,6-dione]", "Activity: Ratio between the % of control (basal activity) of compound of formula (1) at 30 μM and the % of control (basal activity) of AMP (natural substrate) at 200 μM": "B (50%≦B<75%)"}, {"compound": "Cc1cccc(-c2c(F)sc3c2C(=O)C(F)(c2ccccc2)C(=O)N3)c1", "note": "(stereo not drawn) [No 137, 2,5-difluoro-3-(m-tolyl)-5-phenyl-7H-thieno[2,3-b]pyridine-4,6-dione]", "Activity: Ratio between the % of control (basal activity) of compound of formula (1) at 30 μM and the % of control (basal activity) of AMP (natural substrate) at 200 μM": "C (C≧75%)"}, {"compound": "O=C1Nc2scc(-c3ccccc3Cl)c2C(=O)C1(F)c1ccccc1", "note": "(stereo not drawn) [No 138, 3-(2-chlorophenyl)-5-fluoro-5-phenyl-7H-thieno[2,3-b]pyridine-4,6-dione]", "Activity: Ratio between the % of control (basal activity) of compound of formula (1) at 30 μM and the % of control (basal activity) of AMP (natural substrate) at 200 μM": "B (50%≦B<75%)"}, {"compound": "CC1(c2cccc(S(C)(=O)=O)c2)C(=O)Nc2sc(Cl)c(-c3ccccc3F)c2C1=O", "note": "(stereo not drawn) [No 139, 2-chloro-3-(2-fluorophenyl)-5-methyl-5-(3-methyl-sulfonylphenyl)-7H-thieno[2,3-b]pyridine-4,6-dione]", "Activity: Ratio between the % of control (basal activity) of compound of formula (1) at 30 μM and the % of control (basal activity) of AMP (natural substrate) at 200 μM": "A (0%<A<50%)"}, {"compound": "CC1(c2ccc(O)cc2)C(=O)Nc2sc(Cl)c(-c3ccccc3)c2C1=O", "note": "(stereo not drawn) [No 140, 2-chloro-5-(4-hydroxyphenyl)-5-methyl-3-phenyl-7H-thieno[2,3-b]pyridine-4,6-dione]", "Activity: Ratio between the % of control (basal activity) of compound of formula (1) at 30 μM and the % of control (basal activity) of AMP (natural substrate) at 200 μM": "A (0%<A<50%)"}, {"compound": "COc1ccccc1-c1c(Cl)sc2c1C(=O)C(C)(c1ccc(S(C)(=O)=O)cc1)C(=O)N2", "note": "(stereo not drawn) [No 141, 2-chloro-3-(2-methoxyphenyl)-5-methyl-5-(4-methyl-sulfonylphenyl)-7H-thieno[2,3-b]pyridine-4,6-dione]", "Activity: Ratio between the % of control (basal activity) of compound of formula (1) at 30 μM and the % of control (basal activity) of AMP (natural substrate) at 200 μM": "A (0%<A<50%)"}, {"compound": "CC(C)(C)c1ccc(-c2csc3c2C(=O)C(F)(c2ccccc2)C(=O)N3)cc1", "note": "(stereo not drawn) [No 142, 3-(4-tert-butylphenyl)-5-fluoro-5-phenyl-7H-thieno[2,3-b]pyridine-4,6-dione]", "Activity: Ratio between the % of control (basal activity) of compound of formula (1) at 30 μM and the % of control (basal activity) of AMP (natural substrate) at 200 μM": "A (0%<A<50%)"}, {"compound": "CC(C)(C)c1ccc(-c2c(Cl)sc3c2C(=O)C(F)(c2ccccc2)C(=O)N3)cc1", "note": "(stereo not drawn) [No 143, 3-(4-tert-butylphenyl)-2-chloro-5-fluoro-5-phenyl-7H-thieno[2,3-b]pyridine-4,6-dione]", "Activity: Ratio between the % of control (basal activity) of compound of formula (1) at 30 μM and the % of control (basal activity) of AMP (natural substrate) at 200 μM": "A (0%<A<50%)"}, {"compound": "Cc1ccc(-c2c(Cl)sc3c2C(=O)C(C)(c2cccc(C)c2)C(=O)N3)cc1", "note": "(stereo not drawn) [No 144, 2-chloro-5-methyl-5-(m-tolyl)-3-(p-tolyl)-7H-thieno[2,3-b]pyridine-4,6-dione]", "Activity: Ratio between the % of control (basal activity) of compound of formula (1) at 30 μM and the % of control (basal activity) of AMP (natural substrate) at 200 μM": "A (0%<A<50%)"}, {"compound": "COc1ccccc1-c1c(Cl)sc2c1C(=O)C(C)(c1ccccc1)C(=O)N2", "note": "(stereo not drawn) [No 145, 2-chloro-3-(2-methoxyphenyl)-5-methyl-5-phenyl-7H-thieno[2,3-b]pyridine-4,6-dione]", "Activity: Ratio between the % of control (basal activity) of compound of formula (1) at 30 μM and the % of control (basal activity) of AMP (natural substrate) at 200 μM": "A (0%<A<50%)"}, {"compound": "COc1ccc(C2(C)C(=O)Nc3sc(Cl)c(-c4cccc(F)c4)c3C2=O)cc1", "note": "(stereo not drawn) [No 146, 2-chloro-3-(3-fluorophenyl)-5-(4-methoxyphenyl)-5-methyl-7H-thieno[2,3-b]pyridine-4,6-dione]", "Activity: Ratio between the % of control (basal activity) of compound of formula (1) at 30 μM and the % of control (basal activity) of AMP (natural substrate) at 200 μM": "A (0%<A<50%)"}, {"compound": "O=C1Nc2scc(-c3ccccc3O)c2C(=O)C1(F)c1ccccc1", "note": "(stereo not drawn) [No 147, 5-fluoro-3-(2-hydroxyphenyl)-5-phenyl-7H-thieno[2,3-b]pyridine-4,6-dione]", "Activity: Ratio between the % of control (basal activity) of compound of formula (1) at 30 μM and the % of control (basal activity) of AMP (natural substrate) at 200 μM": "C (C≧75%)"}, {"compound": "CC1(c2cccc(S(C)(=O)=O)c2)C(=O)Nc2sc(Cl)c(-c3cccc(F)c3)c2C1=O", "note": "(stereo not drawn) [No 148, 2-chloro-3-(3-fluorophenyl)-5-methyl-5-(3-methyl-sulfonylphenyl)-7H-thieno[2,3-b]pyridine-4,6-dione]", "Activity: Ratio between the % of control (basal activity) of compound of formula (1) at 30 μM and the % of control (basal activity) of AMP (natural substrate) at 200 μM": "A (0%<A<50%)"}, {"compound": "CC1(c2ccc(S(C)(=O)=O)cc2)C(=O)Nc2sc(Cl)c(-c3cccc(F)c3)c2C1=O", "note": "(stereo not drawn) [No 149, 2-chloro-3-(3-fluorophenyl)-5-methyl-5-(4-methyl-sulfonylphenyl)-7H-thieno[2,3-b]pyridine-4,6-dione]", "Activity: Ratio between the % of control (basal activity) of compound of formula (1) at 30 μM and the % of control (basal activity) of AMP (natural substrate) at 200 μM": "A (0%<A<50%)"}, {"compound": "COc1ccc(C2(C)C(=O)Nc3sc(Cl)c(-c4ccc(C)cc4)c3C2=O)cc1", "note": "(stereo not drawn) [No 150, 2-chloro-5-(4-methoxyphenyl)-5-methyl-3-(p-tolyl)-7H-thieno[2,3-b]pyridine-4,6-dione]", "Activity: Ratio between the % of control (basal activity) of compound of formula (1) at 30 μM and the % of control (basal activity) of AMP (natural substrate) at 200 μM": "A (0%<A<50%)"}, {"compound": "O=C1Nc2sc(Cl)c(-c3cc(F)ccc3OCc3ccccc3)c2C(=O)C1(F)c1ccccc1", "note": "(stereo not drawn) [No 151, 3-(2-benzyloxy-5-fluoro-phenyl)-2-chloro-5-fluoro-5-phenyl-7H-thieno[2,3-b]pyridine-4,6-dione]", "Activity: Ratio between the % of control (basal activity) of compound of formula (1) at 30 μM and the % of control (basal activity) of AMP (natural substrate) at 200 μM": "A (0%<A<50%)"}, {"compound": "COc1ccc(OCc2ccccc2)c(-c2csc3c2C(=O)C(F)(c2ccccc2)C(=O)N3)c1", "note": "(stereo not drawn) [No 152, 3-(2-benzyloxy-5-methoxy-phenyl)-5-fluoro-5-phenyl-7H-thieno[2,3-b]pyridine-4,6-dione]", "Activity: Ratio between the % of control (basal activity) of compound of formula (1) at 30 μM and the % of control (basal activity) of AMP (natural substrate) at 200 μM": "B (50%≦B<75%)"}, {"compound": "COc1ccc(-c2c(Cl)sc3c2C(=O)C(C)(c2ccccc2F)C(=O)N3)cc1", "note": "(stereo not drawn) [No 153, 2-chloro-5-(2-fluorophenyl)-3-(4-methoxyphenyl)-5-methyl-7H-thieno[2,3-b]pyridine-4,6-dione]", "Activity: Ratio between the % of control (basal activity) of compound of formula (1) at 30 μM and the % of control (basal activity) of AMP (natural substrate) at 200 μM": "A (0%<A<50%)"}]}]}
